The supplement of paper PMC10307832

What was measured:
Test in all cases: relative viability (nuclei count vs DMSO), 5 days (fraction); higher = more cells survive
GW-2580 + Lapatinib = compound: COC1=CC=C(C=C1)COC2=C(C=C(C=C2)CC3=CN=C(N=C3N)N)OC [GW-2580] + CS(=O)(=O)CCNCc1ccc(-c2ccc3ncnc(Nc4ccc(OCc5cccc(F)c5)c(Cl)c4)c3c2)o1 [Lapatinib] (partner 2 µM)
Outline: (§1)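 Five library-drug doses in √10 steps were combined with a fixed anchor-drug dose, or a single drug was given alone, by pin tool to lung cancer cell lines in 1536-well plates the day after seeding. Nuclei were stained and counted after 5 days. Relative viability is the nuclei count in treated wells over that in vehicle wells, taken as the median of duplicate plates.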

GW-2580 + Dasatinib = compound: COC1=CC=C(C=C1)COC2=C(C=C(C=C2)CC3=CN=C(N=C3N)N)OC [GW-2580] + Cc1nc(Nc2ncc(C(=O)Nc3c(C)cccc3Cl)s2)cc(N2CCN(CCO)CC2)n1 [Dasatinib] (partner 0.075 µM)
Outline: as §1

Fedratinib + Navitoclax = compound: Cc1cnc(Nc2ccc(OCCN3CCCC3)cc2)nc1Nc1cccc(S(=O)(=O)NC(C)(C)C)c1 [Fedratinib] + CC1(C)CCC(c2ccc(Cl)cc2)=C(CN2CCN(c3ccc(C(=O)NS(=O)(=O)c4ccc(N[C@H](CCN5CCOCC5)CSc5ccccc5)c(S(=O)(=O)C(F)(F)F)c4)cc3)CC2)C1 [Navitoclax] (partner 0.5 µM)
Outline: as §1

Fedratinib + Crizotinib = compound: Cc1cnc(Nc2ccc(OCCN3CCCC3)cc2)nc1Nc1cccc(S(=O)(=O)NC(C)(C)C)c1 [Fedratinib] + C[C@@H](Oc1cc(-c2cnn(C3CCNCC3)c2)cnc1N)c1c(Cl)ccc(F)c1Cl [Crizotinib] (partner 1 µM)
Outline: as §1

Fedratinib + Decitabine = compound: Cc1cnc(Nc2ccc(OCCN3CCCC3)cc2)nc1Nc1cccc(S(=O)(=O)NC(C)(C)C)c1 [Fedratinib] + Nc1ncn([C@H]2C[C@H](O)[C@@H](CO)O2)c(=O)n1 [Decitabine] (partner 2 µM)
Outline: as §1

Fedratinib + Olaparib = compound: Cc1cnc(Nc2ccc(OCCN3CCCC3)cc2)nc1Nc1cccc(S(=O)(=O)NC(C)(C)C)c1 [Fedratinib] + O=C(c1cc(Cc2n[nH]c(=O)c3ccccc23)ccc1F)N1CCN(C(=O)C2CC2)CC1 [Olaparib] (partner 8 µM)
Outline: as §1

Cell Line | relative viability (GW-2580 + Lapatinib; first compound 0.08 µM) | relative viability (GW-2580 + Lapatinib; first compound 0.8 µM) | relative viability (GW-2580 + Lapatinib; first compound 2.53 µM) | relative viability (GW-2580 + Lapatinib; first compound 8 µM) | relative viability (GW-2580 + Dasatinib; first compound 0.08 µM) | relative viability (GW-2580 + Dasatinib; first compound 0.8 µM) | relative viability (GW-2580 + Dasatinib; first compound 2.53 µM) | relative viability (GW-2580 + Dasatinib; first compound 8 µM) | relative viability (Fedratinib + Navitoclax; first compound 0.1 µM) | relative viability (Fedratinib + Navitoclax; first compound 0.3162 µM) | relative viability (Fedratinib + Navitoclax; first compound 1 µM) | relative viability (Fedratinib + Crizotinib; first compound 0.1 µM) | relative viability (Fedratinib + Crizotinib; first compound 0.3162 µM) | relative viability (Fedratinib + Crizotinib; first compound 1 µM) | relative viability (Fedratinib + Decitabine; first compound 0.1 µM) | relative viability (Fedratinib + Decitabine; first compound 0.3162 µM) | relative viability (Fedratinib + Decitabine; first compound 1 µM) | relative viability (Fedratinib + Olaparib; first compound 0.1 µM) | relative viability (Fedratinib + Olaparib; first compound 0.3162 µM) | relative viability (Fedratinib + Olaparib; first compound 1 µM)
HCC-15 | 0.87 | 1.08 | 0.807 | 0.866 | 0.639 | 0.73 | 0.629 | 0.578 | 0.654 | 0.635 | 0.487 | 0.839 | 0.762 | 0.71 | 0.507 | 0.738 | 0.533 | 0.732 | 0.676 | 0.806
HCC-44 | 1.12 | 1.06 | 0.923 | 1.04 |  |  |  |  | 0.914 | 0.874 | 1.04 | 0.797 | 0.756 | 0.85 | 0.929 | 0.947 | 0.949 | 0.928 | 0.945 | 0.964
HCC-78 | 0.917 | 1.37 | 0.439 | 0.752 | 0.322 | 0.467 | 0.286 | 0.298 | 0.676 |  | 0.834 | 0.346 |  | 0.305 | 0.693 | 0.73 | 0.705 | 0.847 | 0.87 | 0.827
HCC-366 | 1.08 | 1.02 | 0.977 | 1.19 | 0.711 | 0.759 | 0.603 | 0.563 | 1.22 | 1.04 | 1.07 | 0.21 | 0.5 | 0.416 | 0.29 | 0.307 | 0.366 | 0.525 | 0.325 | 0.345
HCC-827 | 0.225 | 0.211 | 0.167 | 0.152 | 0.309 | 0.413 | 0.283 | 0.245 | 0.949 | 1.01 | 1.06 | 0.985 | 0.963 | 0.953 | 0.292 | 0.336 | 0.318 | 0.606 | 0.528 | 0.749
IA-LM | 0.997 | 0.862 | 0.572 | 0.876 |  |  |  |  | 0.884 | 0.721 | 0.972 | 0.805 | 0.589 | 0.736 |  |  |  | 0.829 | 0.751 | 0.819
LCLC-103H |  |  |  |  | 0.451 | 0.496 | 0.511 | 0.484 |  |  |  | 1.07 | 0.922 | 1.01 | 0.725 | 0.734 | 0.703 | 0.819 | 0.753 | 0.773
NCI-H358 | 0.499 | 0.484 | 0.409 | 0.409 | 0.173 | 0.199 | 0.159 | 0.115 |  |  |  | 0.427 | 0.608 | 0.374 | 0.156 | 0.21 | 0.101 | 0.62 | 0.536 | 0.44
NCI-H441 |  |  |  |  | 0.679 | 0.764 | 0.582 | 0.534 | 0.534 | 0.341 | 0.574 | 0.65 | 0.623 | 0.619 | 0.223 | 0.218 | 0.233 | 0.607 | 0.481 | 0.525
